Results published in article PMC11420776 (RSC Advances, 2024).

Tests used:
[1] = system: HOP-92 (NSC lung cancer); experiment: NCI 60-cell one-dose antiproliferative screen; format: cell-based, human; settings: one dose 10 μM
[2] = system: HT29 (colon cancer); experiment: NCI 60-cell one-dose antiproliferative screen; format: cell-based, human; settings: one dose 10 μM
[3] = system: MALME-3M (melanoma); experiment: NCI 60-cell one-dose antiproliferative screen; format: cell-based, human; settings: one dose 10 μM
[4] = system: SN12C (renal cancer); experiment: NCI 60-cell one-dose antiproliferative screen; format: cell-based, human; settings: one dose 10 μM
[5] = system: HCC-2998 (colon cancer); experiment: NCI 60-cell one-dose antiproliferative screen; format: cell-based, human; settings: one dose 10 μM
[6] = system: 60 human tumor cell lines; experiment: NCI 60-cell one-dose antiproliferative screen, whole panel; format: cell-based; settings: for inhibition at 10 µM: Homo sapiens, 60 cell, read-out: Mean inhibition (mean GI%)
[7] = system: DU-145 (prostate cancer); experiment: NCI 60-cell one-dose antiproliferative screen; format: cell-based, human; settings: one dose 10 μM
[8] = system: UO-31 (renal cancer); experiment: NCI 60-cell one-dose antiproliferative screen; format: cell-based, human; settings: one dose 10 μM
[9] = system: A549/ATCC (NSC lung cancer); experiment: NCI 60-cell one-dose antiproliferative screen; format: cell-based, human; settings: one dose 10 μM
[10] = system: NCI/ADR-RES (ovarian cancer); experiment: NCI 60-cell one-dose antiproliferative screen; format: cell-based, human; settings: one dose 10 μM
[11] = system: OVCAR-5 (ovarian cancer); experiment: NCI 60-cell one-dose antiproliferative screen; format: cell-based, human; settings: one dose 10 μM
[12] = system: M14 (melanoma); experiment: NCI 60-cell one-dose antiproliferative screen; format: cell-based, human; settings: one dose 10 μM
[13] = system: SNB-19 (CNS cancer); experiment: NCI 60-cell one-dose antiproliferative screen; format: cell-based, human; settings: one dose 10 μM
[14] = system: SF-268 (CNS cancer); experiment: NCI 60-cell one-dose antiproliferative screen; format: cell-based, human; settings: one dose 10 μM
[15] = system: HS 578T (breast cancer); experiment: NCI 60-cell one-dose antiproliferative screen; format: cell-based, human; settings: one dose 10 μM
[16] = system: SK-MEL-2 (melanoma); experiment: NCI 60-cell one-dose antiproliferative screen; format: cell-based, human; settings: one dose 10 μM
[17] = system: PC-3 (prostate cancer); experiment: NCI 60-cell one-dose antiproliferative screen; format: cell-based, human; settings: one dose 10 μM
[18] = system: KM12 (colon cancer); experiment: NCI 60-cell one-dose antiproliferative screen; format: cell-based, human; settings: one dose 10 μM
[19] = system: OVCAR-3 (ovarian cancer); experiment: NCI 60-cell one-dose antiproliferative screen; format: cell-based, human; settings: one dose 10 μM
[20] = system: A498 (renal cancer); experiment: NCI 60-cell one-dose antiproliferative screen; format: cell-based, human; settings: one dose 10 μM
[21] = system: NCI-H522 (NSC lung cancer); experiment: NCI 60-cell one-dose antiproliferative screen; format: cell-based, human; settings: one dose 10 μM
[22] = system: SF-295 (CNS cancer); experiment: NCI 60-cell one-dose antiproliferative screen; format: cell-based, human; settings: one dose 10 μM
[23] = system: MCF7 (breast cancer); experiment: NCI 60-cell one-dose antiproliferative screen; format: cell-based, human; settings: one dose 10 μM
[24] = system: NCI-H23 (NSC lung cancer); experiment: NCI 60-cell one-dose antiproliferative screen; format: cell-based, human; settings: one dose 10 μM
[25] = system: COLO-205 (colon cancer); experiment: NCI 60-cell one-dose antiproliferative screen; format: cell-based, human; settings: one dose 10 μM
[26] = system: UACC-257 (melanoma); experiment: NCI 60-cell one-dose antiproliferative screen; format: cell-based, human; settings: one dose 10 μM
[27] = system: NCI-H460 (NSC lung cancer); experiment: NCI 60-cell one-dose antiproliferative screen; format: cell-based, human; settings: one dose 10 μM
[28] = system: NCI-H322M (NSC lung cancer); experiment: NCI 60-cell one-dose antiproliferative screen; format: cell-based, human; settings: one dose 10 μM
[29] = system: SF-539 (CNS cancer); experiment: NCI 60-cell one-dose antiproliferative screen; format: cell-based, human; settings: one dose 10 μM
[30] = system: SK-MEL-28 (melanoma); experiment: NCI 60-cell one-dose antiproliferative screen; format: cell-based, human; settings: one dose 10 μM
[31] = system: RPMI-8226 (leukemia); experiment: NCI 60-cell one-dose antiproliferative screen; format: cell-based, human; settings: one dose 10 μM
[32] = system: EKVX (NSC lung cancer); experiment: NCI 60-cell one-dose antiproliferative screen; format: cell-based, human; settings: one dose 10 μM
[33] = system: SNB-75 (CNS cancer); experiment: NCI 60-cell one-dose antiproliferative screen; format: cell-based, human; settings: one dose 10 μM
[34] = system: HCT-15 (colon cancer); experiment: NCI 60-cell one-dose antiproliferative screen; format: cell-based, human; settings: one dose 10 μM
[35] = system: IGROV1 (ovarian cancer); experiment: NCI 60-cell one-dose antiproliferative screen; format: cell-based, human; settings: one dose 10 μM
[36] = system: SW-620 (colon cancer); experiment: NCI 60-cell one-dose antiproliferative screen; format: cell-based, human; settings: one dose 10 μM
[37] = system: CAKI-1 (renal cancer); experiment: NCI 60-cell one-dose antiproliferative screen; format: cell-based, human; settings: one dose 10 μM
[38] = system: 786-0 (renal cancer); experiment: NCI 60-cell one-dose antiproliferative screen; format: cell-based, human; settings: one dose 10 μM
[39] = system: MDA-MB-468 (breast cancer); experiment: NCI 60-cell one-dose antiproliferative screen; format: cell-based, human; settings: one dose 10 μM
[40] = system: U251 (CNS cancer); experiment: NCI 60-cell one-dose antiproliferative screen; format: cell-based, human; settings: one dose 10 μM
[41] = system: HOP-62 (NSC lung cancer); experiment: NCI 60-cell one-dose antiproliferative screen; format: cell-based, human; settings: one dose 10 μM
[42] = system: T-47D (breast cancer); experiment: NCI 60-cell one-dose antiproliferative screen; format: cell-based, human; settings: one dose 10 μM
[43] = system: NCI-H226 (NSC lung cancer); experiment: NCI 60-cell one-dose antiproliferative screen; format: cell-based, human; settings: one dose 10 μM
[44] = system: MDA-MB-231/ATCC (breast cancer); experiment: NCI 60-cell one-dose antiproliferative screen; format: cell-based, human; settings: one dose 10 μM
[45] = system: OVCAR-4 (ovarian cancer); experiment: NCI 60-cell one-dose antiproliferative screen; format: cell-based, human; settings: one dose 10 μM
[46] = system: SK-OV-3 (ovarian cancer); experiment: NCI 60-cell one-dose antiproliferative screen; format: cell-based, human; settings: one dose 10 μM
[47] = system: ACHN (renal cancer); experiment: NCI 60-cell one-dose antiproliferative screen; format: cell-based, human; settings: one dose 10 μM
[48] = system: UACC-62 (melanoma); experiment: NCI 60-cell one-dose antiproliferative screen; format: cell-based, human; settings: one dose 10 μM
[49] = system: HCT-116 (colon cancer); experiment: NCI 60-cell one-dose antiproliferative screen; format: cell-based, human; settings: one dose 10 μM
[50] = system: OVCAR-8 (ovarian cancer); experiment: NCI 60-cell one-dose antiproliferative screen; format: cell-based, human; settings: one dose 10 μM
[51] = system: TK-10 (renal cancer); experiment: NCI 60-cell one-dose antiproliferative screen; format: cell-based, human; settings: one dose 10 μM
[52] = system: CCRF-CEM (leukemia); experiment: NCI 60-cell one-dose antiproliferative screen; format: cell-based, human; settings: one dose 10 μM
[53] = system: RXF 393 (renal cancer); experiment: NCI 60-cell one-dose antiproliferative screen; format: cell-based, human; settings: one dose 10 μM
[54] = system: MDA-MB-435 (melanoma); experiment: NCI 60-cell one-dose antiproliferative screen; format: cell-based, human; settings: one dose 10 μM
[55] = system: LOX IMIV (melanoma); experiment: NCI 60-cell one-dose antiproliferative screen; format: cell-based, human; settings: one dose 10 μM

## COc1ccc(-c2nnc3ccc(NN=Cc4ccccc4)nn23)cc1 [Compound 4e, 6-(2-Benzylidenehydrazinyl)-3-(4-methoxyphenyl)-[1,2,4]triazolo[4,3-b]pyridazine]
[1]
  GI%: 29.15%
[2]
  GI%: — (— GI% is below 15%)
[3]
  GI%: — (— GI% is below 15%)
[4]
  GI%: — (— GI% is below 15%)
[5]
  GI%: — (— GI% is below 15%)
[6]
  inhibition at 10 µM: 7.15%
[7]
  GI%: — (— GI% is below 15%)
[8]
  GI%: — (— GI% is below 15%)
[9]
  GI%: 21.90%
[10]
  GI%: 30.10%
[11]
  GI%: — (— GI% is below 15%)
[12]
  GI%: — (— GI% is below 15%)
[13]
  GI%: 17.10%
[14]
  GI%: — (— GI% is below 15%)
[15]
  GI%: 17.35%
[16]
  GI%: — (— GI% is below 15%)
[17]
  GI%: — (— GI% is below 15%)
[18]
  GI%: — (— GI% is below 15%)
[19]
  GI%: — (— GI% is below 15%)
[20]
  GI%: — (— GI% is below 15%)
[21]
  GI%: — (— GI% is below 15%)
[22]
  GI%: — (— GI% is below 15%)
[23]
  GI%: 28.54%
[24]
  GI%: — (— GI% is below 15%)
[25]
  GI%: — (— GI% is below 15%)
[26]
  GI%: — (— GI% is below 15%)
[27]
  GI%: — (— GI% is below 15%)
[28]
  GI%: — (— GI% is below 15%)
[29]
  GI%: 17.17%
[30]
  GI%: — (— GI% is below 15%)
[31]
  GI%: — (— GI% is below 15%)
[32]
  GI%: — (— GI% is below 15%)
[33]
  GI%: 62.97%
[34]
  GI%: — (— GI% is below 15%)
[35]
  GI%: — (— GI% is below 15%)
[36]
  GI%: — (— GI% is below 15%)
[37]
  GI%: — (— GI% is below 15%)
[38]
  GI%: — (— GI% is below 15%)
[39]
  GI%: — (— GI% is below 15%)
[40]
  GI%: 22.16%
[41]
  GI%: — (— GI% is below 15%)
[42]
  GI%: — (— GI% is below 15%)
[43]
  GI%: 42.42%
[44]
  GI%: 34.41%
[45]
  GI%: — (— GI% is below 15%)
[46]
  GI%: — (— GI% is below 15%)
[47]
  GI%: — (— GI% is below 15%)
[48]
  GI%: — (— GI% is below 15%)
[49]
  GI%: — (— GI% is below 15%)
[50]
  GI%: 34.25%
[51]
  GI%: — (— GI% is below 15%)
[52]
  GI%: — (— GI% is below 15%)
[53]
  GI%: — (— GI% is below 15%)
[54]
  GI%: — (— GI% is below 15%)
[55]
  GI%: 29.87%

## Cc1cc(C)n(-c2ccc3nnc(-c4ccccc4)n3n2)n1 [Compound 5, 6-(3,5-dimethyl-1H-pyrazol-1-yl)-3-phenyl-[1,2,4]triazolo[4,3-b]pyridazine]
[1]
  GI%: — (— GI% is below 15%)
[2]
  GI%: — (— GI% is below 15%)
[3]
  GI%: — (— GI% is below 15%)
[4]
  GI%: — (— GI% is below 15%)
[5]
  GI%: — (— GI% is below 15%)
[6]
  inhibition at 10 µM: < 0%
[6]; NCI-60 panel, one dose 10 μM
  cytotoxic activity in words: demolished cytotoxicity
[7]
  GI%: — (— GI% is below 15%)
[8]
  GI%: >100%
[9]
  GI%: — (— GI% is below 15%)
[10]
  GI%: 23.93%
[11]
  GI%: — (— GI% is below 15%)
[12]
  GI%: — (— GI% is below 15%)
[13]
  GI%: — (— GI% is below 15%)
[14]
  GI%: — (— GI% is below 15%)
[15]
  GI%: — (— GI% is below 15%)
[16]
  GI%: — (— GI% is below 15%)
[17]
  GI%: — (— GI% is below 15%)
[18]
  GI%: — (— GI% is below 15%)
[19]
  GI%: — (— GI% is below 15%)
[20]
  GI%: — (— GI% is below 15%)
[21]
  GI%: 25.34%
[22]
  GI%: — (— GI% is below 15%)
[23]
  GI%: — (— GI% is below 15%)
[24]
  GI%: — (— GI% is below 15%)
[25]
  GI%: — (— GI% is below 15%)
[26]
  GI%: — (— GI% is below 15%)
[27]
  GI%: — (— GI% is below 15%)
[28]
  GI%: — (— GI% is below 15%)
[29]
  GI%: — (— GI% is below 15%)
[30]
  GI%: — (— GI% is below 15%)
[31]
  GI%: — (— GI% is below 15%)
[32]
  GI%: — (— GI% is below 15%)
[33]
  GI%: — (— GI% is below 15%)
[34]
  GI%: — (— GI% is below 15%)
[35]
  GI%: — (— GI% is below 15%)
[36]
  GI%: — (— GI% is below 15%)
[37]
  GI%: 25.28%
[38]
  GI%: — (— GI% is below 15%)
[39]
  GI%: — (— GI% is below 15%)
[40]
  GI%: — (— GI% is below 15%)
[41]
  GI%: — (— GI% is below 15%)
[42]
  GI%: — (— GI% is below 15%)
[43]
  GI%: — (— GI% is below 15%)
[44]
  GI%: — (— GI% is below 15%)
[45]
  GI%: — (— GI% is below 15%)
[46]
  GI%: — (— GI% is below 15%)
[47]
  GI%: — (— GI% is below 15%)
[48]
  GI%: — (— GI% is below 15%)
[49]
  GI%: — (— GI% is below 15%)
[50]
  GI%: — (— GI% is below 15%)
[51]
  GI%: — (— GI% is below 15%)
[52]
  GI%: — (— GI% is below 15%)
[53]
  GI%: — (— GI% is below 15%)
[54]
  GI%: — (— GI% is below 15%)
[55]
  GI%: 22.70%
